Test results published in patent EP0532328A2, “Novel lignans, intermediates thereof and a process for preparing the intermediates” (TSUMURA & CO., priority 1991, dated 1993).
Where two headings read alike, the source gives them in different places.

Assays:
[1] = solubility in a physiological salt solution; assay type: physicochemical
Description: The thus-obtained compound V is dissolved in methanol, and a) when R4 is a methoxyl group, a dilute water solution of sodium hydroxide is added to the solution to hydrolyze it, the thus-reacted solution is washed with ethyl acetate, and the water phase is concentrated, followed by acidifying with 10 % hydrochloric acid or b) when R4 is a benzyloxyl group, hydrogen gas is added to compound V in the presence of palladium on carbon, the used palladium on carbon is removed, and the methanol is distilled off, to obtain a compound represented by the constitutional formula: [drawing 11] wherein R1 and R2 are as defined above, said compound being shown as compound VI. The thus-obtained compound VI is dissolved in a solvent such as acetone, the thus-obtained solution is reacted with a dilute water solution of sodium hydroxide, the thus-reacted solution is filtered to obtain a deposit, the thus-obtained deposit is washed with said solvent, and the thus-washed deposit is dried to obtain a novel lignan compound that is one of the present inventions and that is represented by the constitutional formula: [drawing 12] wherein R1 and R2 are as defined above and R5 is a residual group of the sodium salt of an amino acid, said compound being referred to as compound VII. […]

[2] = solubility in water / purified water; assay type: physicochemical
Description: However, intravenous administrations are necessary to promptly produce drug effects in acute phase symptoms in hepatic lesion, etc., or to lower effective doses. An administration by intravenous drop infusion is not preferable as it causes patients physical and psychological pain. However, due to the low solubility in water (0.15 mg/ml of water), an aqueous injection faces a difficulty in maintaining an effective amount of the compound dissolved in an adequate amount of liquid for a one-time administration, because the amount of liquid per dose of the injection is limited to 10 to 20 ml. To make the amount of liquid adequate for the administration of an amount of the effective compound, a large amount of a solubilizing agent such as polyethylene glycol must be used. However, since this causes adverse effects, such as a hemolysis reaction, the amount used should be limited to a certain extent. Thus the development of a material having medicinal effects equivalent to said compounds and a proper solublity in water, as a substance for intravenous injection, has been sought.
The thus-obtained compound V is dissolved in methanol, and a) when R4 is a methoxyl group, a dilute water solution of sodium hydroxide is added to the solution to hydrolyze it, the thus-reacted solution is washed with ethyl acetate, and the water phase is concentrated, followed by acidifying with 10 % hydrochloric acid or b) when R4 is a benzyloxyl group, hydrogen gas is added to compound V in the presence of palladium on carbon, the used palladium on carbon is removed, and the methanol is distilled off, to obtain a compound represented by the constitutional formula: [drawing 11] wherein R1 and R2 are as defined above, said compound being shown as compound VI. The thus-obtained compound VI is dissolved in a solvent such as acetone, the thus-obtained solution is reacted with a dilute water solution of sodium hydroxide, the thus-reacted solution is filtered to obtain a deposit, the thus-obtained deposit is washed with said solvent, and the thus-washed deposit is dried to obtain a novel lignan compound that is one of the present inventions and that is represented by the constitutional formula: [drawing 12] wherein R1 and R2 are as defined above and R5 is a residual group of the sodium salt of an amino acid, said compound being referred to as compound VII. In this reaction, when instead of a dilute water solution of sodium hydroxide, a dilute water solution of another pharmaceutically acceptable metal hydroxide is used, then a compound is obtained wherein R5 is, instead of the residual group of the sodium salt of amino acid, a pharmaceutically acceptable salt other than the residual group of the sodium salt of the amino acid. Said salts are, for example, a potassium salt and a calcium salt.

[3] = in words, compared with the corresponding derivative of gomisin A

For COc1cc2c(c(OC)c1OC)-c1c(cc3c(c1OC)OCO3)C[C@H](C)[C@@](C)(OC(=O)CCC(=O)NCC(=O)O)C2 [gomisin A glycinosodium succinate], the “solubility in a physiological salt solution” value [1] was 30 mg/10 ml.
In the case of COc1cc2c(c(OC)c1OC)-c1c(cc3c(c1OC)OCO3)C[C@H](C)[C@@](C)(OC(=O)CCC(=O)O)C2 [gomisin Asodium succinate, gomisin A sodium succinate], the “solubility in purified water” value [2] is reported as 30 mg/2 ml and the “solubility relative to the solubility of gomisin A” value ([2]; ratio to gomisin A) is reported as 100 times.
For COc1cc2c(c(OC)c1OC)-c1c(cc(OC)c(OC)c1OC)C[C@](C)(OC(=O)CCC(=O)NCC(=O)O)[C@@H](C)C2 [schizandrin glycinosodium succinate], the “solubility in purified water” value [2, 3] was “quite equivalent to the solubility of each corresponding derivative of gomisin A” and the “solubility in a physiological salt solution” value [1, 3] was “quite equivalent to the solubility of each corresponding derivative of gomisin A”.
In the case of COc1cc2c(c(OC)c1OC)-c1c(cc(OC)c(OC)c1OC)C[C@](C)(OC(=O)CCC(=O)O)[C@@H](C)C2 [schizandrin sodium succinate], the “solubility in purified water” value [2, 3] is reported as “quite equivalent to the solubility of each corresponding derivative of gomisin A”.
